Assay results published in patent US20110144155A1, “8-HYDROXYQUINOLINE DERIVATIVES FOR THE TREATMENT OF HEMATOLOGICAL MALIGNANCIES” (priority 2008, published 2011).

Experiments:
[1] = test system: MDAY-D2 leukemia/lymphoma; test: MDAY-D2 subcutaneous tumor in NOD-Scid mice; format: in vivo; details: 100 mg/kg for 5 of 7 days
Experimental: (§1) Given the effects on leukemia and lymphoma cell lines and primary patient samples, the compounds were tested in a leukemia/lymphoma xenograft model. MDAY-D2 leukemia/lymphoma cells were injected intraperitoneally into DBA2 mice. Mice were then treated twice daily with oral clioquinol (100 mg/kg) for 10 days. Ten days after treatment, mice were sacrificed and the weight and volume of the intraperitoneal tumor was measured. […] Similar results were obtained with a K562 leukemia, MDAY-D2 leukemia/lymphoma and OCI AML2 human leukemia xenograft (FIG. 4) K562 leukemia, MDAY-D2 leukemia/lymphoma or OCI AML2 human leukemia cells were injected subcutaneous into sublethally irradiated NOD-Scid mice. Animals were subsequently treated with 5AHQ. The 5AHQ treatment was initiated when tumors reached volumes of 200 mm^3 at which time mice were randomized to receive 100 mg/kg of 5AHQ (treated group) or buffer control (untreated group) for 5 of 7 days. Caliper measurements were performed twice weekly to estimate tumor volume and differences compared between treated and untreated groups.

[2] = test system: MDAY-D2 murine leukemia/lymphoma cells; test: Cell viability MTS assay, MDAY-D2; format: cell-based; details: 72 hours
Experimental: (§2) LP-1 myeloma cells, MDAY-D2 murine leukemia/lymphoma cells, and OCI-AML2 human leukemia cells and A549 lung cancer cells were treated with increasing concentrations of compounds 5AHQ, HNQ, BCQ, COQ, and DiiodoQ (Table 1). 72 hours after incubation, cell viability was determined by an MTS assay. […] . Given the effects on cultured cells, 5AHQ was evaluated in a mouse model of leukemia. K562 cells were injected subcutaneously into NOD SCID mice. […] .

[3] = test system: K562 human leukemia cells; test: K562 leukemia xenograft in NOD/SCID mice; format: in vivo
Experimental: Sublethally irradiated (3.54 Gy) NOD/SCID mice were injected subcutaneously with K562 human leukemia cells. One week later, mice were then treated daily by oral gavage with 5AHQ (50 mg/kg) in water. Three weeks after injection of cells, mice were sacrificed, the subcutaneous tumor excised, and the weight and volume of the tumor measured.
as §1
LP-1 myeloma cells, MDAY-D2 murine leukemia/lymphoma cells, and OCI-AML2 human leukemia cells and A549 lung cancer cells were treated with increasing concentrations of compounds 5AHQ, HNQ, BCQ, COQ, and DiiodoQ (Table 1). 72 hours after incubation, cell viability was determined by an MTS assay. […]. Given the effects on cultured cells, 5AHQ was evaluated in a mouse model of leukemia. K562 cells were injected subcutaneously into NOD SCID mice. […].

[4] = test system: OCI-AML2 human leukemia cells; test: Cell viability MTS assay, AML2; format: cell-based; details: 72 hours
Experimental: as §2

LP-1 myeloma cells = test: Cell viability MTS assay, LP1; format: cell-based; details: 72 hours
Experimental: as §2

[5] = Copper binding: stability constant and Cu:ligand ratio; format: physicochemical
myeloma cell lines = test: Cell viability panel, myeloma cell lines; details: read-out: IC50, induced cell death
Experimental: (§3) Cells were cultured at 37° C. with 5% CO2 in a humid incubator.
(§4) Cell viability was assessed with the CellTiter96® Aqueous Non-Radioactive Assay kit according to manufactures' instructions (Promega).
(§5) The effects of clioquinol on the viability of acute leukemia/lymphoma (n=7), myeloma (n=14), and solid tumor (n=5) cell lines as well as primary AML samples (n=6) and primary normal hematopoietic cells (n=3) was tested.

A549 lung cancer cells = test: Cell viability MTS assay, A549; format: cell-based; details: 72 hours
Experimental: as §2

[6] = test system: OCI AML2 human leukemia cells; test: OCI AML2 xenograft in NOD-Scid mice; format: in vivo; details: OCI AML2 subcutaneous; 100 mg/kg for 5 of 7 days
Experimental: as §1

solid tumor cell lines = test: Cell viability panel, solid tumor cell lines
Experimental: as §3, §4, §5

[7] = test system: acute leukemia/lymphoma cell lines; test: Cell viability panel, acute leukemia/lymphoma cell lines; details: read-out: IC50, induced cell death
Experimental: as §3, §4, §5

20S proteasome = target: T1, 20S proteasome (Homo sapiens, UniProt P28074); test: Proteasome activity (chymotrypsin-like, Suc-LLVY-AMC); format: biochemical
T1 construct: Cellular proteins were extracted from cells with lysis buffer; endogenous in cells
T1 sequence (P28074 60-263): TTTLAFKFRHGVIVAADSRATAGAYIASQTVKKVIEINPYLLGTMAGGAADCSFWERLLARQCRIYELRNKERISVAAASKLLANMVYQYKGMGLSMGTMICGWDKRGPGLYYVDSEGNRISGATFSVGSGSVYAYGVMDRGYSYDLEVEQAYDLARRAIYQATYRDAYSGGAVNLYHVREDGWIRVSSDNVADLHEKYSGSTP
Experimental: Cellular proteins were extracted from cells with lysis buffer (50 mM HEPES pH 7.5, 150 mM NaCl, 2 mM ATP, and 1% Triton X-100). The chymotrypsin-like activity of the proteasome was measured by incubating equal amounts of protein with the preferential chymotrypsin-like substrate Suc-LLVY-AMC in assay buffer (50 mM Tris-HCl, pH 7.5, 150 mM NaCl) for two hours. After incubation, […] and the rate of free AMC was measured over time with a florescent spectrophotometric plate reader (excitation=380 nm, emission=460 nm).

[8] = test system: primary normal hematopoietic cells; test: Cell viability, primary normal hematopoietic cells; format: cell-based; details: forty-eight hours
p21 and p27 = p21 and p27 expression in myeloma and leukemia cells; format: cell-based; details: low micromolar concentrations
Experimental: To prepare cytosolic extracts, NIH3T3 cells and myeloma cells were washed with phosphate-buffered saline (PBS, pH 7.4) and suspending in lysis buffer [10 mM Tris (pH 7.4), 150 mM NaCl, 0.1% Triton X-100, 0.5% sodium deoxycholate, and 5 mM EDTA] containing protease inhibitors (Complete tablets, Roche, Indianapolis, Ind.). Protein concentrations were determined by the Bradford assay. Immunoblot assays were performed by subjecting equal amounts of protein to SDS-PAGE gels followed by transfer to Nitrocellulose membranes. Membranes were probed with polyclonal rabbit anti-human cyclin D2 (0.5 μg/ml, both from Santa Cruz Biotech, Santa Cruz, Calif.), or monoclonal mouse-anti human p21 (1:200 v/v, Santa Cruz Biotech), monoclonal mouse-anti human p27 (1:2,500 v/v BD Transduction Laboratories), polyclonal mouse-anti human ubiquitin (1:2,000 v/v Calbiochem) and monoclonal mouse-anti-β-actin (1:10,000 v/v) (Sigma, St. Lois, Mo.). […] Detection was performed by the Enhanced Chemical Luminescence (ECL) method (Pierce, Rockford, Ill.).
Cyclin D2 is over-expressed in multiple myeloma (MM) and a subset of high-risk patients with acute myeloid leukemia (AML), contributing to their pathogenesis and chemoresistance (17, 18) (19). […] Sixteen hours after the addition of the compounds, luciferase expression was measured as a marker of cyclin D2 transactivation. […]

proteasome = target: T2, proteasome (Homo sapiens, UniProt P28074); test: Proteasome inhibition in cells; details: resistant cells (for clioquinol including normal hematopoietic cells)
T2 sequence (P28074 60-263): T1 sequence (P28074 60-263)
Experimental: Cellular proteins were extracted from cells with lysis buffer (50 mM HEPES pH 7.5, 150 mM NaCl, 2 mM ATP, and 1% Triton X-100). The chymotrypsin-like activity of the proteasome was measured by incubating equal amounts of protein with the preferential chymotrypsin-like substrate Suc-LLVY-AMC in assay buffer (50 mM Tris-HCl, pH 7.5, 150 mM NaCl) for two hours. After incubation, was added and the rate of free AMC was measured over time with a florescent spectrophotometric plate reader (excitation=380 nm, emission=460 nm).

[9] = test system: myeloma and leukemia cells; test: Cell cycle analysis; format: cell-based; details: low micromolar concentrations
Experimental: Cells were harvested, washed with cold PBS, suspended in 70% cold ethanol and incubated overnight at −20° C. Cells were then treated with 100 ng/ml of DNase-free RNase (InvitroGen) at 37° C. for 30 min, washed with cold PBS, and resuspended in PBS with 50 μg/ml of propidium iodine. DNA content was analyzed by flow cytometry (FACSCalibur, Becton Dickinson, Florida, USA). The percentage of cells in each phase of the cell cycle was calculated with ModiFit software (Becton Dickinson).
Cyclin D2 is over-expressed in multiple myeloma (MM) and a subset of high-risk patients with acute myeloid leukemia (AML), contributing to their pathogenesis and chemoresistance (17, 18) (19). One of the regulators of cyclin D2 is the oncogene c-maf that is also frequently over-expressed in MM (27). Therefore, it was sought to identify c-maf dependent and independent inhibitors of cyclin D2. To identify such small molecule inhibitors, a high throughput chemical genomics screen was developed. […] Sixteen hours after the addition of the compounds, luciferase expression was measured as a marker of cyclin D2 transactivation. […]

cyclin D2 promoter = test: High throughput screen for inhibitors of cyclin D2 transactivation (luciferase); format: cell-based, Mouse; details: NIH3T3 cells with c-maf; ~5 μM; sixteen hours
Excerpt: The promoter of cyclin D2 (−894 to −4), containing c-maf responsive element sequence (MARE), was cloned from HeLa cell genomic DNA and subcloned into the pGL2 luciferase reporter vector (Promega, Madison, Wis.). This construct was co-transfected with pcDNA3.1 containing a neomycin resistance gene into NIH3T3 wild type cells and NIH3T3 cells stably over-expressing c-maf-IRES-GFP. Cells stably expressing c-maf, GFP, and luciferase were selected for further application.
NIH3T3 cells stably expressing c-maf and the cyclin D2 promoter driving luciferase (13,000 cells per well) were plated in 96-well plates by the Biomek FX liquid handler (Beckman, Fullerton, Calif.). The same workstation was used for plate formatting and reagent distribution. […] After incubation, cyclin D2 transactivation was assessed by the luciferase assay and viability was assessed by the MTS assay.
Luciferase activity was assessed according to the manufacturer's instructions (Promega, Madison, Wis.). […] After 10 min incubation, an equal volume of Bright-Glo Luciferase substrate (Promega) was added and the luminescence signal was detected with a 96-well Luminoskan luminescence plate reader (Thermo Labsystem, Waltham, Mass.) with a 5 second integration. […]

[10] = test system: primary AML patient samples; test: Cell viability, primary AML samples; format: cell-based; details: Homo sapiens; in 6/7 primary AML patient samples; forty-eight hours; read-out: IC50, induced cell death
[11] = after oral administration, patients; cited from earlier work
[12] = test system: MDAY-D2 leukemia/lymphoma cells; format: in vivo, mice; details: oral 100 mg/kg twice daily, 10 days
Experimental: DBA-2 mice were injected intraperitoneally with MDAY-D2 murine leukemia cells. Mice were then treated twice daily by oral gavage with clioquinol (100 mg/kg) dissolved in intralipid or intralipid control. Ten days after treatment, mice were sacrificed, the intraperitoneal tumor excised, and the weight and volume of the tumor measured.
as §1, with “Caliper measurements were performed twice weekly to estimate tumor volume and differences compared between treated and untreated groups.” left out

Compound | LD50 whole cell, MDAY-D2 [2] | LD50 whole cell, AML2 [4] | LD50 whole cell, LP1 (LP-1 myeloma cells) | K (stability) [5] | IC50 (myeloma cell lines) | LD50 whole cell, A549 (A549 lung cancer cells) | IC50 [7] | IC50 (20S proteasome) | further results
Nc1ccc(O)c2ncccc12 [5AHQ, 5-amino-8-hydroxyquinoline] | 7.8 μm | 3.9 μm | 12.5 μm | 9.84 | < 15 µM | 31.25 μm | < 15 µM | – | tumor growth (volume) [1]: delayed tumor growth; tumor weight and volume ([3]; 50 mg/kg in water, oral gavage, three weeks after injection of cells): reduced tumor weight and volume; tumor growth (volume) ([3]; K562 subcutaneous, 100 mg/kg for 5 of 7 days): delayed tumor growth; efficacy dose in mice xenografts ([3]; mouse, in vivo): 50 mg/kg/day; toxicity ([3]; mouse, in vivo): No significant toxicity; tumor growth (volume) [6]: delayed tumor growth; IC50 (solid tumor cell lines; read-out: IC50, induced cell death): < 15 µM
Oc1c(Br)cc(Cl)c2cccnc12 [BCQ, 7-bromo-5-chloro-8-hydroxyquinoline] | – | – | 31.25 μm | 10.24 | – | – | – | 15.6 µM | –
Oc1ccc(Cl)c2cccnc12 [COQ, 5-chloro-8-hydroxyquinoline] | 3.9 μm | 3.9 μm | 31.25 μm | 8.89 | – | 62.5 μm | – | 62.5 µM | –
Oc1c(I)cc(Cl)c2cccnc12 [Clioquinol, 5-chloro-7-iodo-8-hydroxyquinoline, reference compound] | 15.6 μm | 3.9 μm | 31.25 μm | 9.06 | < 20 µM | 250 μm | < 20 µM | 12.5 µM | samples with induced cell death at IC50<20 μM [8]: 0/3; p21 and p27 expression (p21 and p27): increased expression of p21 and p27; proteasomal inhibition in compound-resistant cells (proteasome): no proteasomal inhibition was detected; cell cycle effect [9]: arrested cells in the G1 phase; cell lines with induced cell death at IC50<20 μM (solid tumor cell lines; solid tumor, forty-eight hours): 0/5; inhibition of cyclin D2 promoter (luciferase) (cyclin D2 promoter): c-maf independent inhibitors of the cyclin D2 promoter; IC50 [10]: < 20 µM; trough serum concentration [11]: 20 µM; tumor progression [12]: delayed tumor progression
Oc1c(I)cc(I)c2cccnc12 [DiiodoQ, reference compound] | 31.25 μm | 62.5 μm | – | – | – | 250 μm | – | > 1000 µM | –
O=[N+]([O-])c1ccc(O)c2ncccc12 [HNQ, 8-hydroxy-5-nitroquinoline] | – | – | 15.6 μm | 9.13 | – | – | – | 15.6 µM | –
